Like-named read-outs stand apart in the source and are kept apart here.
Key:
[1] = tested on: Litomosoides sigmodontis adult female worms; test: Anthelmintic assay, motility of adult filariae cultured in vitro; assay type: cell-based; conditions: 0.1, 1 and 10 µM; scale 0 (immotile) to 2 (maximum motility); 2.0 in media controls
Procedure: To investigate the activity against filarial nematodes, adult female worms of the rodent filarial nematode Litomosoides sigmodontis were cultured in vitro with a 0.1, 1 and 10 µM concentration of 1. Motility of adult filariae as well as reduction of Wolbachia endosymbionts were assessed. […] L. sigmodontis adult female worms were isolated from chronically infected cotton rats (UKB). Three L. sigmodontis female adult worms per condition were cultured in supplemented Minimal Essential Medium (MEM) on a LLCMK2 cell layer, as previously described. […] Candidate 1 was tested at concentrations of 0.1, 1 and 10 µM. Filarial viability was assessed by determining the mean worm motility scores on a scale of 0 (immotile) to 2 (maximum motility) before drug addition and at 1 h, 1 day, 2 day, 4 day, 6 day, 8 day, 10 day, 12 day and 14 day post drug addition. The drug-containing media was renewed every other day. Depletion of Wolbachia endosymbionts from female adult worms was analyzed after two weeks of in vitro culture and determined as previously described using primers for the single copy gene Wolbachia ftsZ.

[2] = tested on: HeLa human cervical carcinoma cell line; test: In vitro cytotoxicity assay with HeLa cells (resazurin); assay type: cell-based
Procedure: In vitro cytotoxicity assay with HeLa cells: The cytotoxicity test against the HeLa human cervical carcinoma cell line was performed as described previously in RPMI cell culture medium supplemented with 10% fetal bovine serum using the 7-hydroxy-3H-phenoxazin-3-one-10-oxide (resazurin) assay. Briefly, a 2-fold serial dilution of the test compounds was prepared in duplicates in a microtiter plate and seeded with trypsinized HeLa cells to a final cell concentration of 1 × 10^4 cells per well. After 24 h of incubation at 37 °C, with 5% CO2 and 95% relative humidity, resazurin was added at a final concentration of 200 μM, and cells were again incubated overnight. Cell viability was assessed by determining the reduction of resazurin to the fluorescent resorufin. Fluorescence was measured in a TECAN Infinite M200 reader at an excitation wavelength of 560 nm and an emission wavelength of 600 nm in relation to an untreated control.

[3] = tested on: panel comprising 60 human cancer cell lines; test: One dose NCI-60 cell-line cytotoxicity screen; assay type: cell-based; conditions: single high dose
From the text: One dose NCI-60 panel: 1 was selected for the anticancer drug screening service as a part of the Developmental Therapeutics Program at the National Cancer Institute (NCI). In vitro tumor growth inhibitory effects were explored using a standard protocol with a single high dose test against a panel comprising 60 human cancer cell lines. It is noteworthy to mention that we had to remove the results of the NCI-H23 cell line, since NCI informed us that its cell line’s identity was not authenticated during the time frame in which the screening of 1 was conducted.

[4] = tested on: M. smegmatis mc2 155; test: Antibacterial assay (MIC); assay type: cell-based, Mycobacterium smegmatis; conditions: Mycolicibacterium smegmatis, MC2155
Procedure: (§1) The minimal inhibitory concentration (MIC) was determined as described previously in cation-adjusted Mueller-Hinton medium according to the standards and guidelines of the Clinical and Laboratory Standards Institute. […] After an overnight incubation at 37 °C, the MIC was read as the lowest compound concentration preventing visible bacterial growth. The strain panel included representative species of nosocomial pathogens, known as “[…]” bacteria. Specifically, the following strains were used: Enterococcus faecium BM 4147-1, Staphylococcus aureus ATCC 29213, Klebsiella pneumoniae ATCC 12657, Acinetobacter baumannii 09987, Pseudomonas aeruginosa ATCC 27853, and Enterobacter aerogenes ATCC 13048. Bacillus subtilis 168, Escherichia coli ATCC 25922, and Mycobacterium smegmatis mc^2 155 ATCC 700084 were used as further reference strains.

[5] = tested on: E. aerogenes ATCC13048; test: Antibacterial assay (MIC); assay type: cell-based, Enterobacter aerogenes; conditions: Klebsiella aerogenes
Procedure: as §1

[6] = tested on: L. donovani strain MHOM/ET/67/L82 axenic amastigotes; test: Activity against L. donovani axenic amastigotes (resazurin); assay type: cell-based, Leishmania donovani; conditions: Leishmania donovani, in vitro, Table 2 values are means of two independent assays
Procedure: Activity against L. donovani axenic amastigotes. Amastigotes of L. donovani strain MHOM/ET/67/L82 were grown in axenic culture at 37 °C in SM medium at pH 5.4 supplemented with 10% heat-inactivated fetal bovine serum under an atmosphere of 5% CO2 in air. 100 µL of culture medium with 10^5 amastigotes from axenic culture with or without a serial drug dilution were seeded in 96-well microtiter plates. Serial drug dilutions ranged from 100 to 0.002 μg/mL. After 70 h of incubation, the plates were inspected under an inverted microscope to assure growth of the controls and sterile conditions.

[7] = tested on: L-6 cells (rat skeletal myoblasts); test: In vitro cytotoxicity assay with L-6 cells (resazurin); assay type: cell-based; conditions: L6, L-6 cells, read-out: IC50 L6
Procedure: In vitro cytotoxicity assay with L-6 cells. Assays were performed in 96-well microtiter plates, each well containing 100 μL of RPMI 1640 medium supplemented with 1% L-glutamine (200 mM) and 10% fetal bovine serum, and 4000 L-6 cells (a primary cell line derived from rat skeletal myoblasts). Serial drug dilutions ranged from 100 to 0.002 μg/mL. After 70 h of incubation, the plates were inspected under an inverted microscope to assure growth of the controls and sterile conditions. 10 μL of resazurin was then added to each well and the plates were incubated for another 2 h. […] Podophyllotoxin (Sigma P4405) was used as control (IC50 0.011 ± 0.005 μM).

[8] = tested on: T. cruzi Tulahuen strain C2C4; test: Activity against T. cruzi in L-6 cells (beta-galactosidase/CPRG); assay type: cell-based, Trypanosoma cruzi; conditions: in vitro, Tulahuen C2C4 in L-6 cells, Table 2 values are means of two independent assays
Procedure: Activity against T. cruzi. Rat skeletal myoblasts (L-6 cells) were seeded in 96-well microtiter plates at 2000 cells/well in 100 μL RPMI 1640 medium with 10% FBS and 2 mM L-glutamine. After 24 h, the media in each well was removed and replaced with 100 μL of fresh media containing 5000 trypomastigote forms of T. cruzi Tulahuen strain C2C4 containing the β-galactosidase (lacZ) gene. After 48 h, the media was removed from the wells again, and this time, replaced by 100 μL fresh medium with or without 1 from 100 to 0.002 μg/mL. After 96 h of incubation, the plates were inspected under an inverted microscope to assess growth and sterility of the controls. Then, the substrate CPRG/Nonidet (50 μL) was added to all wells. A color reaction developed within 2–6 h and could be read photometrically at 540 nm.

[9] = tested on: Severe Acute Respiratory Syndrome Corona Virus type 2 (SARS-CoV-2); assay type: cell-based; conditions: up to the highest concentration tested (10 µM), CaCo2 cells
[10] = tested on: E. faecium BM4147-1; test: Antibacterial assay (MIC); assay type: cell-based; conditions: Enterococcus faecium, BM41471
Procedure: as §1

[11] = tested on: P. aeruginosa ATCC27853; test: Antibacterial assay (MIC); assay type: cell-based; conditions: Pseudomonas aeruginosa
Procedure: as §1

[12] = tested on: S. aureus ATCC29213; test: Antibacterial assay (MIC); assay type: cell-based; conditions: Staphylococcus aureus
Procedure: as §1

Question: `CC1=C[C@@H](/C=C(\C)CCCc2ccoc2)[C@]2(OC(=O)C(C)=C2O)[C@@H]2[C@@H](C)CC[C@@H]12` [compound 1, Ircinianin] was tested. Which motility score [1] did it give?
Answer: The motility score was 1.7–1.8.

Question: What about the IC50 [2] of the same compound?
Answer: Its IC50 is over 64 µg/mL.

Question: What about the “Activity in NCI 60 cell-line cytotoxicity screen” value [3] of the same compound?
Answer: The value was “no activity”.

Question: And the MIC [4]?
Answer: Its MIC is over 32 µg/mL.

Question: And the MIC [5]?
Answer: The MIC was over 32 µg/mL.

Question: What about the IC50 [6] of the same compound?
Answer: The IC50 was 16.6 µM.

Question: What about the IC50 ([7]; 70 h incubation) of the same compound?
Answer: Its IC50 is 150 µM.

Question: What about the IC50 ([7]; single cell line assays (Table S7)) of the same compound?
Answer: Its IC50 is 59.5 µg/mL.

Question: What about the IC50 [8] of the same compound?
Answer: Its IC50 is over 80 µM.

Question: And the IC50 ([8]; listed as Ircinianin (1))?
Answer: The IC50 was 191 µM.

Question: And the “Inhibition of SARS-CoV-2 infection” value [9]?
Answer: Its value is “no inhibition”.

Question: And the MIC [10]?
Answer: The MIC was over 32 µg/mL.

Question: What about the MIC [11] of the same compound?
Answer: Its MIC is over 32 µg/mL.

Question: And the MIC [12]?
Answer: The MIC was over 32 µg/mL.

Source: publication PMC9410537, “Discovery of Ircinianin Lactones B and C—Two New Cyclic Sesterterpenes from the Marine Sponge Ircinia wistarii” (Marine Drugs, 2022)
